Patent US20230416248A1, “COMPOUNDS AND USES THEREOF” (Foghorn Therapeutics Inc., priority 2020, published 2023)
Where two headings read alike, the source gives them in different places.

Legend:
BRM = target: T1, BRM (Homo sapiens, UniProt P51531); assay: ATPase catalytic activity of BRM, ADP-Glo in vitro biochemical assay; details: for IC50: 30 nM BRM, 400 μM ATP; for Ratio* (BRG1 IC50 (μM) divided by BRM IC50 (μM)): selectivity ratio BRG1 IC50 / BRM IC50
T1 construct: made in house; host or cells: High Five insect cells
T1 sequence (P51531 whole entry): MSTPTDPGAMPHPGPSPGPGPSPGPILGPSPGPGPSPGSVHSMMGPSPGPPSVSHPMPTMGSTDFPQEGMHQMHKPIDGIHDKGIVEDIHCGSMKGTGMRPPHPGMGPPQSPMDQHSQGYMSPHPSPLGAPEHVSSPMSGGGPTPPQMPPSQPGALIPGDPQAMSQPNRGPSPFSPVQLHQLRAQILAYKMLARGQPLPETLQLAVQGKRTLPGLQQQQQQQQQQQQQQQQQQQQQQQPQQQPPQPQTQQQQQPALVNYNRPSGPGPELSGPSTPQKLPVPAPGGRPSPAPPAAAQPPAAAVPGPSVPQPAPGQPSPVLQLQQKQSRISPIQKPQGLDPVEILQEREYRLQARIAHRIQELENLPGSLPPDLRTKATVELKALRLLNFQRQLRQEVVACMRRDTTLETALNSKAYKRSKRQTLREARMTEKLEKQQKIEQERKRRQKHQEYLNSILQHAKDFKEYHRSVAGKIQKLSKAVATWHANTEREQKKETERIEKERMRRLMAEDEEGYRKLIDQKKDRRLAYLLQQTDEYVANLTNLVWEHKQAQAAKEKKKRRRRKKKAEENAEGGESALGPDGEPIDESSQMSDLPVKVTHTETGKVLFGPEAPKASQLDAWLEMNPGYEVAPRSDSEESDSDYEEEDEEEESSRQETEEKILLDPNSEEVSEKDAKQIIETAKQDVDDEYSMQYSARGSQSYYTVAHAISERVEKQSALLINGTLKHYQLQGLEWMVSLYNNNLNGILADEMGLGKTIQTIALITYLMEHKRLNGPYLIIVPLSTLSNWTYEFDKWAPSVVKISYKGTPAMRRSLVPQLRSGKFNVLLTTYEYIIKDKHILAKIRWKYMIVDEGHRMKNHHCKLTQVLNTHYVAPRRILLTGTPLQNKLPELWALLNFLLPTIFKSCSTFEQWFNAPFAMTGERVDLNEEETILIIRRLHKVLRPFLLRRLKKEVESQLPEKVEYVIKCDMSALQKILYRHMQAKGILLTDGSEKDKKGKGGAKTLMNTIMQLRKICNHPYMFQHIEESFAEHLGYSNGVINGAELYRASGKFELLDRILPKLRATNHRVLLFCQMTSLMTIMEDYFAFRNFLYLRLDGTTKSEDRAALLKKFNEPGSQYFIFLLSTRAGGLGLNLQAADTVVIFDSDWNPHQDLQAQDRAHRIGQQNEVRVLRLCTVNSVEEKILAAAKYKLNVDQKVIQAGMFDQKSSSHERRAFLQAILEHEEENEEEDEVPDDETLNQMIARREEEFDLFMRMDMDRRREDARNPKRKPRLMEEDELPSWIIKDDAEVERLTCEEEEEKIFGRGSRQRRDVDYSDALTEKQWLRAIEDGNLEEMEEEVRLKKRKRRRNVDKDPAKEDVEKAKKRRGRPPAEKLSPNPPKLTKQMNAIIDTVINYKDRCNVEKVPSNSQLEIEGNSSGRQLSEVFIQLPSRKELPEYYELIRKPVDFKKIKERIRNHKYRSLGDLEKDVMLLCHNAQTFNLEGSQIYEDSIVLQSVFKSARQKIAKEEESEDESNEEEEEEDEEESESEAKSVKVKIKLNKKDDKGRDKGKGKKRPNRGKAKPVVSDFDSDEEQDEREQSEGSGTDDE
Outline: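 ADP-Glo luminescence, after depletion of leftover ATP and conversion of ADP, reported the activity. The 1 h room-temperature reaction held 400 μM ATP, 20 nM salmon sperm DNA and 30 nM BRM in 20 mM Tris pH 8, 20 mM MgCl2, 50 mM NaCl, 0.1% Tween-20, 1 mM DTT.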

BRG-1 = target: T2, BRG-1 (Homo sapiens, UniProt P51532); assay: ATPase catalytic activity of BRG-1, ADP-Glo in vitro biochemical assay; details: 30 nM BRG-1, 400 μM ATP, read-out: BRG1 IC50
T2 construct: made in house; host or cells: High Five insect cells
T2 sequence (P51532 whole entry): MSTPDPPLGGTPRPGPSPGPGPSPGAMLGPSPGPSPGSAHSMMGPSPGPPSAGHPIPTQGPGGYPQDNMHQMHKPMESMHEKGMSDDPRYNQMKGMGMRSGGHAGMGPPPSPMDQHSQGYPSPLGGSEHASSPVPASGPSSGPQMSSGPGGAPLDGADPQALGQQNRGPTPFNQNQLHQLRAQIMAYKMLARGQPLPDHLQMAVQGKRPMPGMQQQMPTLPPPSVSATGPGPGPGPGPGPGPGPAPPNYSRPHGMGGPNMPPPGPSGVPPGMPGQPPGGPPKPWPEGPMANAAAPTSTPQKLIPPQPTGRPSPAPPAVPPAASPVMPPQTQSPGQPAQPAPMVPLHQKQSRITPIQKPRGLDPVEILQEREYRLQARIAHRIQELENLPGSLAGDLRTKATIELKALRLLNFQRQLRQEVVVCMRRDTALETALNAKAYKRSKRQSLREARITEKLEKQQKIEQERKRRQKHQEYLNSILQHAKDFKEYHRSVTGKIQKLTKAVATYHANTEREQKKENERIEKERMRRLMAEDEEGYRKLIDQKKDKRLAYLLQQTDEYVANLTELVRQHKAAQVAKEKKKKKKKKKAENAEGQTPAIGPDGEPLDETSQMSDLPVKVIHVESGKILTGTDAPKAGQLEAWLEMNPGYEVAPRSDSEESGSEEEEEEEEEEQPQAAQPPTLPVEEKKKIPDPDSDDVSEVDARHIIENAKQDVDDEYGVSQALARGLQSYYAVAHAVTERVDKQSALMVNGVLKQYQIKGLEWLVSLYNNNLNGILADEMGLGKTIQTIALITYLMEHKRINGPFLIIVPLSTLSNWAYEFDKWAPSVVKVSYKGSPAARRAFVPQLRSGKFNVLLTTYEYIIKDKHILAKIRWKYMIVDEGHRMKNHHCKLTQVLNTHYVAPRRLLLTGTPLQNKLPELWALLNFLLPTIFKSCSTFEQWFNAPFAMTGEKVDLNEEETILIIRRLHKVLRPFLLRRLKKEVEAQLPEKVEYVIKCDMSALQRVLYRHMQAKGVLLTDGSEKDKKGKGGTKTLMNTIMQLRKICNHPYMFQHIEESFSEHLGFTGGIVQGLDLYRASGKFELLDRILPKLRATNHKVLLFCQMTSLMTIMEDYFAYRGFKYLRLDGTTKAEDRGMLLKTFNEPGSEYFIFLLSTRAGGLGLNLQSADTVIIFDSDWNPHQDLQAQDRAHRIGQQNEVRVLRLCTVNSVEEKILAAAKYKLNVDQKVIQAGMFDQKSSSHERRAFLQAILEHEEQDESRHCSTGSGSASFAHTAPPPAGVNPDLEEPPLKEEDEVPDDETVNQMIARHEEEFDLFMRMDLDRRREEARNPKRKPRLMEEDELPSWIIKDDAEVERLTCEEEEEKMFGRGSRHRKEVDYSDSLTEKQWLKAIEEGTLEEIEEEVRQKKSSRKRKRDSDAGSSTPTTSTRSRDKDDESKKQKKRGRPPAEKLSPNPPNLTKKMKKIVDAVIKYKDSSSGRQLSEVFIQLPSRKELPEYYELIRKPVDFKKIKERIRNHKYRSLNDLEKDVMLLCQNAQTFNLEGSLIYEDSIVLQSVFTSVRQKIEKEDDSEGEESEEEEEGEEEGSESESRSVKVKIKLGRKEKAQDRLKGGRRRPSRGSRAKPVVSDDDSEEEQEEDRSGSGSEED
Outline: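 In this in vitro format, BRG-1 hydrolysis product ADP is detected via a two-step ADP-Glo workup (ATP removal, then ADP-to-ATP conversion with luciferase detection) followed by a luminescence read.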

[1] = ATPase catalytic activity, ADP-Glo

## O=C(NCc1cc2nc(-c3cncc(C4CC4)n3)ccc2cn1)c1ccc2c(c1)S(=O)(=O)CCOC2 [Compound 305]
BRM; ADP-Glo ATPase assay
  IC50: 30 nM
BRM
  Ratio* (BRG1 IC50 (μM) divided by BRM IC50 (μM)): 9.32
BRG-1; ADP-Glo ATPase assay
  IC50: 279 nM

## CCO[C@@H](C)c1ccc2c(n1)N(c1ccc3cnc(CNC(=O)c4ccc5c(c4)S(=O)(=O)CCOC5)cc3n1)CCC2 [Compound 635]
BRM; [1]
  IC50: 168 nM
BRM; ratio of BRG1 IC50 to BRM IC50
  Ratio*: 15.08
BRG-1; [1]
  IC50: 2530 nM

## COCCNc1cccc(-c2ccc3cnc(CNC(=O)c4ccc(C(F)F)c(S(C)(=O)=O)c4)cc3n2)n1 [Compound 80]
BRM; ADP-Glo ATPase assay
  IC50: 176 nM
BRM
  Ratio* (BRG1 IC50 (μM) divided by BRM IC50 (μM)): 11.75
BRG-1; ADP-Glo ATPase assay
  IC50: 2070 nM

## O=C(NCc1cc2nc(-c3cccc(C4CC4)n3)ccc2nn1)c1ccc2c(c1)S(=O)(=O)CCOC2 [Compound 253]
BRM; ADP-Glo ATPase assay
  IC50: 20.7 nM
BRM
  Ratio* (BRG1 IC50 (μM) divided by BRM IC50 (μM)): 19.26
BRG-1; ADP-Glo ATPase assay
  IC50: 398 nM

## COc1c(F)cnc2c1CCCN2c1ccc2cnc(CNC(=O)c3ccc4c(c3)S(=O)(=O)CCOC4)cc2n1 [Compound 802]
BRM; ADP-Glo ATPase assay
  IC50: 8.1 nM
BRM; ratio BRG1 IC50 / BRM IC50
  Ratio*: 8.31
BRG-1; ADP-Glo ATPase assay
  IC50: 67.1 nM

## COC[C@H]1C[C@H]1c1cccc(-c2ccc3cnc(CNC(=O)c4ccc5c(c4)S(=O)(=O)CCOC5)cc3n2)n1 [Compound 346]
BRM; [1]
  IC50: 368 nM
BRM; ratio of BRG1 IC50 to BRM IC50
  Ratio*: 7.55
BRG-1; [1]
  IC50: 2770 nM

## CCN(CCOC)c1cccc(-c2ccc3cnc(CNC(=O)c4ccc5c(c4)S(=O)(=O)CCOC5)cc3n2)n1 [Compound 73]
BRM; ADP-Glo ATPase assay
  IC50: 6.8 nM
BRM
  Ratio* (BRG1 IC50 (μM) divided by BRM IC50 (μM)): 11.74
BRG-1; ADP-Glo ATPase assay
  IC50: 79.4 nM

## CN1CCc2nc(-c3ccc4cnc(CNC(=O)c5ccc6c(c5)S(=O)(=O)CCOC6)cc4n3)ccc21 [Compound 176]
BRM; ADP-Glo ATPase assay
  IC50: 437 nM
BRM
  Ratio* (BRG1 IC50 (μM) divided by BRM IC50 (μM)): 4.10
BRG-1; ADP-Glo ATPase assay
  IC50: 1790 nM

## O=C(NCc1cc2nc(-c3cccc(OCC4CC(F)(F)C4)n3)ccc2cn1)c1ccc2c(c1)S(=O)(=O)CCOC2 [Compound 390]
BRM; [1]
  IC50: 60.7 nM
BRM; ratio of BRG1 IC50 to BRM IC50
  Ratio*: 17.24
BRG-1; [1]
  IC50: 1050 nM

## Cc1cc2c(nc1C1CC1)N(c1ccc3cnc(CNC(=O)c4ccc5c(c4)S(=O)(=O)CCOC5)cc3n1)CCC2 [Compound 632]
BRM; [1]
  IC50: 58.3 nM
BRM; ratio of BRG1 IC50 to BRM IC50
  Ratio*: 19.38
BRG-1; [1]
  IC50: 1130 nM

## C[C@@H]1CN(c2cccc(-c3ccc4cnc(CNC(=O)c5ccc6c(c5)S(=O)(=O)CCCOC6)cc4n3)n2)C[C@H](C)O1 [Compound 628]
BRM; [1]
  IC50: 2.7 nM
BRM; ratio of BRG1 IC50 to BRM IC50
  Ratio*: 3.60
BRG-1; [1]
  IC50: 9.7 nM

## Cc1ncnc2c1CCCN2c1ccc2cnc(CNC(=O)c3ccc4c(c3)S(=O)(=O)CCOC4)cc2n1 [Compound 848]
BRM; ADP-Glo ATPase assay
  IC50: 216 nM
BRM; ratio BRG1 IC50 / BRM IC50
  Ratio*: 10.10
BRG-1; ADP-Glo ATPase assay
  IC50: 2180 nM

## COC1(Cn2ccc3c(-c4ccc5cnc(CNC(=O)c6ccc7c(c6)S(=O)(=O)CCOC7)cc5n4)ccnc32)CC1 [Compound 585]
BRM; [1]
  IC50: 40.1 nM
BRM; ratio of BRG1 IC50 to BRM IC50
  Ratio*: 9.22
BRG-1; [1]
  IC50: 369 nM

## C[C@@H]1CN(c2cncc(-c3ccc4cnc(CNC(=O)c5ccc(Cl)c(S(C)(=O)=O)c5)cc4n3)n2)C[C@H](C)O1 [Compound 182]
BRM; ADP-Glo ATPase assay
  IC50: 44.5 nM
BRM
  Ratio* (BRG1 IC50 (μM) divided by BRM IC50 (μM)): 9.47
BRG-1; ADP-Glo ATPase assay
  IC50: 422 nM

## CO[C@H](C)c1cnc2c(c1)CCCN2c1ccc2cnc(CNC(=O)c3ccc4c(c3)S(=O)(=O)CCOC4)cc2n1 [Compound 608]
BRM; [1]
  IC50: 44.5 nM
BRM; ratio of BRG1 IC50 to BRM IC50
  Ratio*: 21.42
BRG-1; [1]
  IC50: 952 nM

## Cc1cc2c(-c3ccc4cnc(CNC(=O)c5ccc6c(c5)S(=O)(=O)CCOC6)cc4n3)ccnc2n1C [Compound 146]
BRM; ADP-Glo ATPase assay
  IC50: 15.3 nM
BRM
  Ratio* (BRG1 IC50 (μM) divided by BRM IC50 (μM)): 12.92
BRG-1; ADP-Glo ATPase assay
  IC50: 197 nM

## Cc1ccc2c(n1)N(c1ccc3cnc(CNC(=O)c4ccc5c(c4)S(=O)(=O)CCOC5)cc3n1)CCO2 [Compound 557]
BRM; [1]
  IC50: 11.3 nM
BRM; ratio of BRG1 IC50 to BRM IC50
  Ratio*: 20.89
BRG-1; [1]
  IC50: 235 nM

## C[C@H]1COCc2ccc(C(=O)NCc3cc4nc(-c5cccc(OC(F)F)n5)ccc4cn3)cc2S1(=O)=O [Compound 384]
BRM; [1]
  IC50: 14.3 nM
BRM; ratio of BRG1 IC50 to BRM IC50
  Ratio*: 28.41
BRG-1; [1]
  IC50: 407 nM

## N#Cc1ccc2c(c1)CCCN2c1ccc2cnc(CNC(=O)c3ccc4c(c3)S(=O)(=O)CCOC4)cc2n1 [Compound 527]
BRM; [1]
  IC50: 20.9 nM
BRM; ratio of BRG1 IC50 to BRM IC50
  Ratio*: 8.47
BRG-1; [1]
  IC50: 177 nM

## COC[C@H](C)S(=O)(=O)c1cccc(C(=O)NCc2cc3nc(-c4cncc(C5CC5)n4)ccc3cn2)c1 [Compound 260]
BRM; ADP-Glo ATPase assay
  IC50: 697 nM
BRM
  Ratio* (BRG1 IC50 (μM) divided by BRM IC50 (μM)): 7.17
BRG-1; ADP-Glo ATPase assay
  IC50: 5000 nM

## C[C@@H]1CN(c2cc(-c3ccc4cnc(CNC(=O)c5ccc6c(c5)S(=O)(=O)CCOC6)cc4n3)ccn2)C[C@H](C)O1 [Compound 153]
BRM; ADP-Glo ATPase assay
  IC50: 46.3 nM
BRM
  Ratio* (BRG1 IC50 (μM) divided by BRM IC50 (μM)): 9.74
BRG-1; ADP-Glo ATPase assay
  IC50: 451 nM

## Cn1nccc1-c1cccc(-c2ccc3cnc(CNC(=O)c4ccc5c(c4)S(=O)(=O)CCOC5)cc3n2)c1 [Compound 235]
BRM; ADP-Glo ATPase assay
  IC50: 154 nM
BRM
  Ratio* (BRG1 IC50 (μM) divided by BRM IC50 (μM)): 7.32
BRG-1; ADP-Glo ATPase assay
  IC50: 1130 nM

## CS(=O)(=O)c1cc(C(=O)NCc2cc3nc(-c4cncc(C5CC5)n4)ccc3cn2)ccc1C1CC1 [Compound 266]
BRM; ADP-Glo ATPase assay
  IC50: 819 nM
BRM
  Ratio* (BRG1 IC50 (μM) divided by BRM IC50 (μM)): 6.11
BRG-1; ADP-Glo ATPase assay
  IC50: 5000 nM

## O=C(NCc1cc2nc(N3CCCc4ccc([C@H]5CC5(F)F)nc43)ccc2cn1)c1ccc2c(c1)S(=O)(=O)CCOC2 [Compound 690]
BRM; [1]
  IC50: 23.5 nM
BRM; ratio of BRG1 IC50 to BRM IC50
  Ratio*: 54.81
BRG-1; [1]
  IC50: 1290 nM

## O=C(NCc1cc2nc(-c3cccc(C4CC4)n3)ccc2cn1)c1ccc2c(c1)S(=O)(=O)CCOC2 [Compound 264]
BRM; ADP-Glo ATPase assay
  IC50: 23.5 nM
BRM
  Ratio* (BRG1 IC50 (μM) divided by BRM IC50 (μM)): 25.10
BRG-1; ADP-Glo ATPase assay
  IC50: 590 nM

## COc1nc(C)ccc1-c1ccc2cnc(CNC(=O)c3ccc4c(c3)S(=O)(=O)[C@@H](C)COC4)cc2n1 [Compound 411]
BRM; [1]
  IC50: 14.6 nM
BRM; ratio of BRG1 IC50 to BRM IC50
  Ratio*: 18.90
BRG-1; [1]
  IC50: 275 nM

## O=C(NCc1cc2nc(-c3cccc4c3OCC[C@@H]4OC3COC3)ccc2cn1)c1ccc2c(c1)S(=O)(=O)CCOC2 [Compound 410]
BRM; [1]
  IC50: 165 nM
BRM; ratio of BRG1 IC50 to BRM IC50
  Ratio*: 6.68
BRG-1; [1]
  IC50: 1100 nM

## O=C(NCc1cc2cc(-c3cncc(C4CC4)n3)ccc2cn1)c1ccc2c(c1)S(=O)(=O)CCOC2 [Compound 263]
BRM; ADP-Glo ATPase assay
  IC50: 23.3 nM
BRM
  Ratio* (BRG1 IC50 (μM) divided by BRM IC50 (μM)): 14.94
BRG-1; ADP-Glo ATPase assay
  IC50: 348 nM

## C[C@H]1COCc2c(F)cc(C(=O)NCc3cc4nc(-c5cccc(C6CC6)n5)ccc4cn3)cc2S1(=O)=O [Compound 458]
BRM; [1]
  IC50: 19.2 nM
BRM; ratio of BRG1 IC50 to BRM IC50
  Ratio*: 34.03
BRG-1; [1]
  IC50: 654 nM

## COC[C@@H]1COc2c(-c3ccc4cnc(CNC(=O)c5ccc6c(c5)S(=O)(=O)CCOC6)cc4n3)cccc2N1C [Compound 639]
BRM; [1]
  IC50: 102 nM
BRM; ratio of BRG1 IC50 to BRM IC50
  Ratio*: 7.66
BRG-1; [1]
  IC50: 780 nM

## O=C(NCc1cc2nc(N3CCOc4ccc(C5CC5)cc43)ccc2cn1)c1ccc2c(c1)S(=O)(=O)CCOC2 [Compound 606]
BRM; [1]
  IC50: 7.5 nM
BRM; ratio of BRG1 IC50 to BRM IC50
  Ratio*: 16.72
BRG-1; [1]
  IC50: 125 nM

## CS(=O)(=O)c1cc(C(=O)NCc2cc3nc(-c4cncc(C5CC5)n4)ccc3cn2)cnc1C(F)F [Compound 277]
BRM; ADP-Glo ATPase assay
  IC50: 615 nM
BRM
  Ratio* (BRG1 IC50 (μM) divided by BRM IC50 (μM)): 8.72
BRG-1; ADP-Glo ATPase assay
  IC50: 5360 nM

## C[C@@H]1CN(c2cccc(-c3cnc4cnc(CNC(=O)c5ccc(C(F)F)c(S(C)(=O)=O)c5)cc4n3)n2)C[C@H](C)O1 [Compound 56]
BRM; ADP-Glo ATPase assay
  IC50: 13.6 nM
BRM
  Ratio* (BRG1 IC50 (μM) divided by BRM IC50 (μM)): 17.62
BRG-1; ADP-Glo ATPase assay
  IC50: 240 nM

## Cc1cc(-c2ccc3cnc(CNC(=O)c4ccc5c(c4)S(=O)(=O)CCOC5)cc3n2)nc(N2C[C@@H](C)O[C@@H](C)C2)c1 [Compound 212]
BRM; ADP-Glo ATPase assay
  IC50: 14.3 nM
BRM
  Ratio* (BRG1 IC50 (μM) divided by BRM IC50 (μM)): 8.51
BRG-1; ADP-Glo ATPase assay
  IC50: 122 nM

## CCN(CC)c1cccc(-c2ccc3cnc(CNC(=O)c4cc(F)c5c(c4)S(=O)(=O)CCOC5)cc3n2)n1 [Compound 62]
BRM; ADP-Glo ATPase assay
  IC50: 18.9 nM
BRM
  Ratio* (BRG1 IC50 (μM) divided by BRM IC50 (μM)): 13.08
BRG-1; ADP-Glo ATPase assay
  IC50: 247 nM

## COCCN(C)c1cccc(-c2ccc3cnc(CNC(=O)c4ccc(C(F)F)c(S(C)(=O)=O)c4)cc3n2)n1 [Compound 110]
BRM; ADP-Glo ATPase assay
  IC50: 20.9 nM
BRM
  Ratio* (BRG1 IC50 (μM) divided by BRM IC50 (μM)): 19.51
BRG-1; ADP-Glo ATPase assay
  IC50: 407 nM
